Measurements as given in patent US20210115040A1, “OGA INHIBITOR COMPOUNDS” (Janssen Pharmaceutica NV, priority 2018, published 2021).

Test system: not given
Test: not given
Details: not given

melting point [°C] | Structure (SMILES)
180.52 | Cc1cc(C[C@H]2CCCN(C(C)c3cnc4[nH]c(C)nc4c3)C2)cc(C)n1 (single isomer, unassigned) [Compound 6a]

Target: T1, recombinant human Meningioma Expressed Antigen 5 (MGEA5), also referred to as O-GlcNAcase (OGA) (Homo sapiens, UniProt O60502)
T1 construct: Full length OGA enzyme was purchased at OriGene (cat #TP322411); purchased OriGene TP322411
T1 sequence (O60502 1-916): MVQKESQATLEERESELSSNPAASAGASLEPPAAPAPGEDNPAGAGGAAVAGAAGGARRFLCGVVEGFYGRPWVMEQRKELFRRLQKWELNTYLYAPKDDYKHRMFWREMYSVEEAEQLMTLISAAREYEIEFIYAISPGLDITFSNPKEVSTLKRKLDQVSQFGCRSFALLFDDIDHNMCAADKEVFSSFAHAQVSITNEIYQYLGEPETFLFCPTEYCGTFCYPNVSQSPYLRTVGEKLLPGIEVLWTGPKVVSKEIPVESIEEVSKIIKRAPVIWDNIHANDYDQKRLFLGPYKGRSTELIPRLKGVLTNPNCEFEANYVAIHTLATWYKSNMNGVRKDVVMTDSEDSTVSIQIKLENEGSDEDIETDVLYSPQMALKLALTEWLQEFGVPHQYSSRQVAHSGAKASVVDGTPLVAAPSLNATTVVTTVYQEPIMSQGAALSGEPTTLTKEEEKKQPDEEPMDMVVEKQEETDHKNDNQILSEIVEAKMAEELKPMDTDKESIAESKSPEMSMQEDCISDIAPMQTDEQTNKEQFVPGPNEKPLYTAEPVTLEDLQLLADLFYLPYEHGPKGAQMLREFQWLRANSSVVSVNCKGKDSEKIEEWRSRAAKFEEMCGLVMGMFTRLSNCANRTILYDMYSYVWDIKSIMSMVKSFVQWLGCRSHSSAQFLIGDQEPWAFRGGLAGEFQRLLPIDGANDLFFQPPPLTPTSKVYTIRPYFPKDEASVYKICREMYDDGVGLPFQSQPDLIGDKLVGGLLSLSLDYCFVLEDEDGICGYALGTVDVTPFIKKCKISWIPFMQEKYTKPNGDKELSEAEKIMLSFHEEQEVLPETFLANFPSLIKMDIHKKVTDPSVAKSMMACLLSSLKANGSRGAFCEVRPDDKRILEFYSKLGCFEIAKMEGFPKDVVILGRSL
Test: OGA biochemical assay (inhibition of FM-GlcNAc hydrolysis, fluorescence)
Details: FM-GlcNAc substrate, 6 h at room temperature, read-out: Enzymatic hOGA, pIC50 (converted)
Outline: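 Full-length OGA (2 nM) pre-incubated 60 min at room temperature with compound, then FM-GlcNAc (100 uM final) hydrolysed 6 h at room temperature in 200 mM citrate/phosphate pH 7.2 with 0.005% Tween-20. Stopped with carbonate pH 11.0; fluorescein read at ex 485/em 538 nm. IC50 and Hill coefficient from curve fit between no-inhibitor and saturating-standard controls.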

IC50 [nM] | Structure (SMILES)
501 | Cc1cc(NCC2CCCN(C(C)c3ccc4sc(C)nc4n3)C2)cc(C)n1 (centres unmarked) [Compound 105]
6.31 | COc1cc(NC[C@H]2CCCN(C(C)c3ccc4sc(C)nc4n3)C2)cc(C)n1 (some centres unmarked) [Compound 109]

Second part, the molecule before the results:

Structure (SMILES) | IC50 [nM]
Cc1cc(C[C@H]2CCCN(C(C)c3cnc4[nH]c(C)nc4c3)C2)cc(C)n1 (single isomer, unassigned) [Compound 6a] | 1580
Cc1cc(C[C@H]2CCN(C(C)c3cnc4[nH]c(C)nc4c3)C2)cc(C(F)(F)F)n1 (some centres unmarked) [Compound 104] | 501
COc1cc(CN[C@H]2CCCN(C(C)c3ccc4sc(C)nc4n3)C2)cc(C)n1 (some centres unmarked) [Compound 107] | 63.1
Cc1cc(NC[C@H]2CCCN(C(C)c3ccc4sc(C)nc4n3)C2)nc(C)n1 (some centres unmarked) [Compound 108] | 7.94

Same assay, conditions: FM-GlcNAc substrate, maximal effect, read-out: Enzymatic Emax (%)

Emax [%] | Structure (SMILES)
94 | Cc1cc(NCC2CCCN(C(C)c3ccc4sc(C)nc4n3)C2)cc(C)n1 (centres unmarked) [Compound 105]
100 | COc1cc(NC[C@H]2CCCN(C(C)c3ccc4sc(C)nc4n3)C2)cc(C)n1 (some centres unmarked) [Compound 109]

The next lines start with the molecule.

Structure (SMILES) | Emax [%]
Cc1cc(C[C@H]2CCCN(C(C)c3cnc4[nH]c(C)nc4c3)C2)cc(C)n1 (single isomer, unassigned) [Compound 6a] | 89
Cc1cc(C[C@H]2CCN(C(C)c3cnc4[nH]c(C)nc4c3)C2)cc(C(F)(F)F)n1 (some centres unmarked) [Compound 104] | 94
COc1cc(CN[C@H]2CCCN(C(C)c3ccc4sc(C)nc4n3)C2)cc(C)n1 (some centres unmarked) [Compound 107] | 93
Cc1cc(NC[C@H]2CCCN(C(C)c3ccc4sc(C)nc4n3)C2)nc(C)n1 (some centres unmarked) [Compound 108] | 101

Target: T2, OGA (Homo sapiens, UniProt O60502)
T2 construct: HEK293 cells inducible for P301L mutant human Tau (isoform 2N4R) were established at Janssen; endogenous in cells; host or cells: HEK293 cells inducible for P301L mutant human Tau (2N4R)
T2 sequence (O60502 1-916): T1 sequence (O60502 1-916)
Test: OGA cellular assay (ICC detection of O-GlcNAcylated proteins in HEK293 cells inducible for P301L mutant human Tau)
Assay type: cell-based
Details: HEK293, HEK293 cells inducible for P301L mutant human Tau, maximum = Thiamet G 200 uM
Outline: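 HEK293 cells inducible for P301L Tau (2N4R), seeded in low-glucose medium, treated with compound for 6 h at 0.2% DMSO. O-GlcNAc immunostained with CTD110.6 after PFA fixation; 488 nm intensity imaged, Hoechst nuclei counted for toxicity. IC50 by non-linear regression, 200 uM Thiamet G as maximum.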

Emax [%] | Structure (SMILES)
14 | Cc1cc(NCC2CCCN(C(C)c3ccc4sc(C)nc4n3)C2)cc(C)n1 (centres unmarked) [Compound 105]
89 | COc1cc(NC[C@H]2CCCN(C(C)c3ccc4sc(C)nc4n3)C2)cc(C)n1 (some centres unmarked) [Compound 109]

Continued, molecule first:

Structure (SMILES) | Emax [%]
Cc1cc(C[C@H]2CCN(C(C)c3cnc4[nH]c(C)nc4c3)C2)cc(C(F)(F)F)n1 (some centres unmarked) [Compound 104] | 20
COc1cc(CN[C@H]2CCCN(C(C)c3ccc4sc(C)nc4n3)C2)cc(C)n1 (some centres unmarked) [Compound 107] | 60
Cc1cc(NC[C@H]2CCCN(C(C)c3ccc4sc(C)nc4n3)C2)nc(C)n1 (some centres unmarked) [Compound 108] | 84

Same assay, conditions: HEK293 cells inducible for P301L mutant human Tau, 6 hours incubation; read-out: Cellular hOGA; pEC50 (converted)

EC50 [nM] | Structure (SMILES)
> 1000 | Cc1cc(NCC2CCCN(C(C)c3ccc4sc(C)nc4n3)C2)cc(C)n1 (centres unmarked) [Compound 105]
10 | COc1cc(NC[C@H]2CCCN(C(C)c3ccc4sc(C)nc4n3)C2)cc(C)n1 (some centres unmarked) [Compound 109]

Second part, the molecule before the results:

Structure (SMILES) | EC50 [nM]
Cc1cc(C[C@H]2CCN(C(C)c3cnc4[nH]c(C)nc4c3)C2)cc(C(F)(F)F)n1 (some centres unmarked) [Compound 104] | > 1000
COc1cc(CN[C@H]2CCCN(C(C)c3ccc4sc(C)nc4n3)C2)cc(C)n1 (some centres unmarked) [Compound 107] | 794
Cc1cc(NC[C@H]2CCCN(C(C)c3ccc4sc(C)nc4n3)C2)nc(C)n1 (some centres unmarked) [Compound 108] | 12.6
